Reference: EP0120270A2, “Furyloxazolylacetic acid derivative, processes for preparing same and pharmaceutical composition” (Tanabe Seiyaku Co., Ltd., priority 1983, dated 1984)

What was measured:
[1] = tested on: male SD rats; assay: Hypolipidemic activity (serum cholesterol and serum triglyceride in rats fed diet containing test compound); type: in vivo; conditions: test compound 50 mg % in diet, ad libitum for one week, group of 5
Description: A test compound (50 mg %) was added to a commercial diet, and male SD rats (body weight: 120 - 140 g, a group of 5 rats) were fed with the diet ad libitum for one week. After the experimental period, blood was collected from the tail vein of the rats under ether anesthesia. Then, serum cholesterol and serum triglyceride were measured according to the methods of Zak (Amr. J. Clin, Pathol., Vol. 24, page 1307 (1954)) and Van Handel-Silversmit (J. Lab. & Clin. Med., Vol. 50, page 152 (1957)), respectively. Based on the results obtained above, the decrease (%) in serum cholesterol or triglyceride were calculated by the following formula: [formula]

[2] = tested on: platelet aggregation; assay: Platelet aggregation-inhibiting activity (collagen-induced aggregation in platelet-rich plasma); type: cell-based, rats; conditions: final concentration: 100 µg/ml, rat PRP, 37°C
Description: Blood was collected from the abdominal aorta of male SD rats (body weight: 250 - 300 g) which were anesthetized with ether. Nine volumes of said blood were mixed with one volume of an aqueous 3.8 % (w/v) trisodium citrate solution, and the mixture was centrifuged at 500 x g for 5 minutes to give platelet-rich plasma (hereinafter referred to as "PRP") as the supernatant solution. The bottom layer was further centrifuged at 1000 x g for 10 minutes to give platelet-poor plasma (hereinafter referred to as "PPP") as the supernatant solution. PRP was diluted with PPP so that the blood platelet count was 8 - 10 x 10 /mm . Then, a mixture of 200 µl of said diluted PRP and 25 µl of a test compound solution (final concentration: 100 µg/ml) was introduced into a glass cell of SIENCO aggregometer (Sienco Inc., Morrison, Colo. Model DP-247-D). After the mixture was stirred at 1100 rpm at 37°C for 2 minutes, 25 µl of a collagen solution (prepared by Holmsen's method described in Biochim. Biophys. Acta, Vol. 186, page 254(1969)) was added thereto, and the percentage inhibition of platelet aggregation was calculated in accordance with the following formula from the degree of the platelet aggregation which was estimated by Born's method (Nature, 194, page 927[…]). [formula]

SMILES	Decrease (%) in serum choles-terol [1]	Decrease (%) in serum trigly-ceride [1]	inhibition at 100 µg/mL [2]
CCOC(=O)C(C)c1nc(-c2ccc(Cl)cc2)oc1-c1ccco1 (stereo not shown) [Ethyl 2-[2-(4-chlorophenyl)-5-(2-furyl)-4-oxazolyl]-propionate]	15%	22%	≥ 10%
CCOC(=O)C(C)c1nc(-c2ccc(Cl)cc2)oc1-c1ccoc1 (stereo not shown) [Ethyl 2-[2-(4-chlorophenyl)-5-(3-furyl)-4-oxazolyl]-propionate]	22%	45%	≥ 10%
CC(C)(C(=O)O)c1nc(-c2ccc(Cl)cc2)oc1-c1ccco1 [2-[2-(4-chlorophenyl)-5-(2-furyl)-4-oxazolyl]-2-methylpropionic acid]	16%	54%	–
CCOC(=O)C(C)(C)Oc1ccc(Cl)cc1 [Clofibrate, 2-(4-chlorophenoxy)-2-methylpropanoic acid ethyl ester, reference compound]	15%	16%	< 10%
CC(C(=O)O)c1nc(-c2ccc(Cl)cc2)oc1-c1ccco1 (stereo not shown) [2-[2-(4-chlorophenyl)-5-(2-furyl)-4-oxazolyl]-propionic acid]	14%	34%	–
